Data reported in patent US20240174723A1, “STAPLED ANTIMICROBIAL PEPTIDES (STAMPS) AND USES THEREOF” (Lytica Therapeutics, Inc., priority 2021, published 2024).
Values after ≈ are worked out from the molar mass of the structure shown. Positions of bridges follow the written chain, without caps; N, C: chain ends. Non-standard residues stand in square brackets, D forms with d. Residues, ends and D or L forms follow the SMILES beside them. S5 = C=CCCC[C@](C)(N)C(=O)O; Pra = C#CC[C@H](N)C(=O)O; Dab = NCC[C@H](N)C(=O)O; Dap = NC[C@H](N)C(=O)O

Experiments:
K. pneumoniae = type: cell-based, Klebsiella pneumoniae
Experimental: (§1) Antimicrobial Activity Assay: The following microbroth dilution protocol was adapted from CLSI to determine the minimum inhibitory concentration (MIC) of StAMPs. Briefly, Mueller-Hinton broth (MHB) or cation-adjusted Mueller-Hinton broth (MHB II) was prepared and autoclaved. Then, a colony of bacterial cells was picked and grown overnight in broth at 37° C. and then diluted and allowed to grow again for 3-4 hours. Serial dilutions of peptide stocks in water (10 μl) were prepared using clear round-bottom polypropylene 96-well plates. Then 90 μl of bacteria in broth was added to give a final inoculum of 5×10^5 CFU/ml. The plates were then covered with porous tape to reduce evaporation and incubated for 20-24 hours at 37° C. The MIC was the minimum peptide concentration at which no visible bacterial growth was observed.
(§2) Renal toxicity was measured after 90 minutes of incubation, while liver toxicity was measured after 48 hours of incubation with StAMPs. N/A=not tested. The following apply to all peptides (i.e., StAMPs) listed in Tables A-C: Crosslinks (X^1—X^2 and X^3—X^4): (alk); N-terminus: —NH2; C-terminus: amidated with —NH2; counterion: Cl^−. The following apply to all peptides (i.e., StAMPs) listed in Table D: Crosslinks (X^1—X^2 and X^3—X^4): (alk); N-terminus: —NH2; C-terminus: as shown in table; counterion: Cl^−.

P. aeruginosa = type: cell-based, Pseudomonas aeruginosa
Experimental: as §1, §2
StAMP Micelle Formulation: DSPE-MPEG(2000) was suspended in buffered saline at 50-100 mg/mL overnight. StAMP stock solutions at 5-20 mg/mL in buffered saline were prepared and equal volumes of micelle and StAMP stock solution were mixed at the desired StAMP:Lipid ratio. Suspensions were allowed to sit for 5-10 minutes at room temperature before being used in in vitro and in vivo assays. […]

in vitro = type: cell-based; conditions: human, Inhibitory Concentration at 50% Cytotoxicity (IC50) Human Liver Cells (HepG2)
Experimental: Cell culture: RPTEC were maintained in MEM media supplemented with growth factors. HEPG2 cell line was maintained in Eagle's Minimum Essential Medium (EMEM) supplemented with fetal bovine serum to a final concentration of 10%.
48 hours cytotoxicity assay: Cells were plated in a 96-well format, and after 4 hour incubation to allow attachment, serial dilutions of StAMPs from a 5 mg/mL water stock, or vehicle, were then added to the cells in a final volume of 100 μl. After incubating at 37° C. for 48 hours, 100 μl of CellTiter-Glo® reagent was added to the cells, and the plates were incubated 10 minutes at room temperature. Luminescence was then measured on a microplate reader.
as §2

A. baumannii = type: cell-based, Acinetobacter baumannii
Experimental: as §1, §2

E. coli = type: cell-based, Escherichia coli
Experimental: as §1, §2

S. aureus = type: cell-based, Staphylococcus aureus
Experimental: as §1, §2

Minimum Inhibitory Concentration (MIC) K. pneumoniae (K. pneumoniae) [µg/mL] | Minimum Inhibitory Concentration (MIC) P. aeruginosa (P. aeruginosa) [µg/mL] | Minimum Inhibitory Concentration (MIC) A. baumannii (A. baumannii) [µg/mL] | Minimum Inhibitory Concentration (MIC) E. coli (E. coli) [µg/mL] | Minimum Inhibitory Concentration (MIC) S. aureus (S. aureus) [µg/mL] | SMILES | IC50 at 48 hours (in vitro) [µg/mL]
16 | 8 | 2 | 4 | 32 | CC(C)[C@@H]1NC(=O)[C@@](C)(NC(=O)[C@H](C)NC(=O)[C@H](CCCCN)NC(=O)CNC(=O)[C@H](Cc2ccccc2)NC(=O)[C@H](CCCCN)NC(=O)[C@H](CCCCN)NC(=O)[C@H](CCN)NC(=O)[C@H](CCCCN)NC(=O)[C@H](CCCCN)NC(=O)[C@]2(C)CCCC=CCCC[C@](C)(NC(=O)CN)C(=O)NCC(=O)N[C@@H](CCCCN)C(=O)N[C@@H](Cc3ccccc3)C(=O)N2)CCCC=CCCC[C@@](C)(C(=O)N[C@@H](C)C(=O)N[C@@H](CCCCN)C(=O)N[C@@H](CCCCN)C(N)=O)NC(=O)[C@H](CCC(=O)O)NC(=O)CNC1=O [compound 42] (H-G[S5]GKF[S5]KK[Dab]KKFGKA[S5]VGE[S5]AKK-NH2; staple 2-6, 16-20) | 194 (≈ 76.5 µM)
32 | 16 | 4 | 8 | >64 | CC(C)[C@@H]1NC(=O)[C@@](C)(NC(=O)[C@H](C)NC(=O)[C@H](CCCCN)NC(=O)CNC(=O)[C@H](Cc2ccccc2)NC(=O)[C@H](CCCCN)NC(=O)[C@H](CCCCN)NC(=O)[C@H](CCCCN)NC(=O)[C@H](CCCCN)NC(=O)[C@H](CCCCN)NC(=O)[C@]2(C)CCCC=CCCC[C@](C)(NC(=O)CN)C(=O)NCC(=O)N[C@@H](CCCCN)C(=O)N[C@@H](Cc3ccccc3)C(=O)N2)CCCC=CCCC[C@@](C)(C(=O)N[C@@H](C)C(=O)N[C@@H](CCCCN)C(=O)N[C@@H](CCCCN)C(=O)NCC(=O)N[C@@H](CCC(=O)O)C(N)=O)NC(=O)[C@H](CCC(=O)O)NC(=O)CNC1=O [compound 53] (H-G[S5]GKF[S5]KKKKKFGKA[S5]VGE[S5]AKKGE-NH2; staple 2-6, 16-20) | 211 (≈ 76.7 µM)
4 | 4 | 2 | 2 | >64 | CC(C)[C@@H]1NC(=O)[C@@](C)(NC(=O)[C@H](C)NC(=O)[C@H](CCCCN)NC(=O)CNC(=O)[C@H](Cc2ccccc2)NC(=O)[C@H](CCCCN)NC(=O)[C@H](CCCCN)NC(=O)[C@H](CCCCN)NC(=O)[C@H](CCCCN)NC(=O)[C@H](CCN)NC(=O)[C@]2(C)CCCC=CCCC[C@](C)(NC(=O)CN)C(=O)NCC(=O)N[C@@H](CCCCN)C(=O)N[C@@H](Cc3ccccc3)C(=O)N2)CCCC=CCCC[C@@](C)(C(=O)N[C@@H](C)C(=O)N[C@@H](CCCCN)C(=O)N[C@@H](CCCCN)C(N)=O)NC(=O)[C@H](CCC(=O)O)NC(=O)CNC1=O (single isomer, unassigned) [compound 41] | 115 (≈ 45.3 µM)
64 | 16 | 4 | 8 | >64 | CC(C)[C@@H]1NC(=O)[C@@](C)(NC(=O)[C@H](C)NC(=O)[C@H](CCCCN)NC(=O)CNC(=O)[C@H](Cc2ccccc2)NC(=O)[C@H](CCCCN)NC(=O)[C@H](CCCCN)NC(=O)[C@H](CN)NC(=O)[C@H](CCCCN)NC(=O)[C@H](CCCCN)NC(=O)[C@]2(C)CCCC=CCCC[C@](C)(NC(=O)CN)C(=O)NCC(=O)N[C@@H](CCCCN)C(=O)N[C@@H](Cc3ccccc3)C(=O)N2)CCCC=CCCC[C@@](C)(C(=O)N[C@@H](C)C(=O)N[C@@H](CCCCN)C(=O)N[C@@H](CCCCN)C(=O)NCC(=O)NCC(=O)N[C@@H](CCC(=O)O)C(N)=O)NC(=O)[C@H](CCC(=O)O)NC(=O)CNC1=O [compound 81] (H-G[S5]GKF[S5]KK[Dap]KKFGKA[S5]VGE[S5]AKKGGE-NH2; staple 2-6, 16-20) | > 200
32 | 1 | 1 | 2 | 64 | CC(C)[C@@H]1NC(=O)[C@@](C)(NC(=O)[C@H](C)NC(=O)[C@H](CCCCN)NC(=O)CNC(=O)[C@H](Cc2ccccc2)NC(=O)[C@H](CCCCN)NC(=O)[C@H](CCCCN)NC(=O)[C@H](CCCCN)NC(=O)[C@H](CCCCN)NC(=O)[C@H](CN)NC(=O)[C@]2(C)CCCC=CCCC[C@](C)(NC(=O)CN)C(=O)NCC(=O)N[C@@H](CCCCN)C(=O)N[C@@H](Cc3ccccc3)C(=O)N2)CCCC=CCCC[C@@](C)(C(=O)N[C@@H](CO)C(=O)N[C@@H](CCCCN)C(=O)N[C@@H](CCCCN)C(N)=O)NC(=O)[C@H](CCC(=O)O)NC(=O)CNC1=O [compound 89] (H-G[S5]GKF[S5][Dap]KKKKFGKA[S5]VGE[S5]SKK-NH2; staple 2-6, 16-20) | 199 (≈ 78.4 µM)
64 | 4 | 2 | 4 | >64 | C#CC[C@H](NC(=O)[C@H](CCC(=O)O)NC(=O)CNC(=O)CNC(=O)[C@H](CCCCN)NC(=O)[C@H](CCCCN)NC(=O)[C@H](C)NC(=O)[C@]1(C)CCCC=CCCC[C@](C)(NC(=O)[C@H](C)NC(=O)[C@H](CCCCN)NC(=O)CNC(=O)[C@H](Cc2ccccc2)NC(=O)[C@H](CCCCN)NC(=O)[C@H](CCCCN)NC(=O)[C@H](CCCCN)NC(=O)[C@H](CCCCN)NC(=O)[C@H](CCCCN)NC(=O)[C@]2(C)CCCC=CCCC[C@](C)(NC(=O)CN)C(=O)NCC(=O)N[C@@H](CCCCN)C(=O)N[C@@H](Cc3ccccc3)C(=O)N2)C(=O)N[C@@H](C(C)C)C(=O)NCC(=O)N[C@@H](CCC(=O)O)C(=O)N1)C(N)=O [compound 95] (H-G[S5]GKF[S5]KKKKKFGKA[S5]VGE[S5]AKKGGE[Pra]-NH2; staple 2-6, 16-20) | > 200
>64 | 64 | 4 | 64 | >64 | CC(C)[C@@H]1NC(=O)[C@@](C)(NC(=O)[C@H](C)NC(=O)[C@H](CCCCN)NC(=O)[C@H](CO)NC(=O)[C@H](Cc2ccccc2)NC(=O)[C@H](CCCCN)NC(=O)[C@H](CCCCN)NC(=O)[C@H](CCCCN)NC(=O)[C@H](CCCCN)NC(=O)[C@H](CCCCN)NC(=O)[C@]2(C)CCCC=CCCC[C@](C)(NC(=O)CN)C(=O)NCC(=O)N[C@@H](CCCCN)C(=O)N[C@@H](Cc3ccccc3)C(=O)N2)CCCC=CCCC[C@@](C)(C(=O)N[C@@H](C)C(=O)N[C@@H](CCCCN)C(=O)N[C@@H](CCCCN)C(=O)NCC(=O)NCC(=O)N[C@@H](CCC(=O)O)C(N)=O)NC(=O)[C@H](CCC(=O)O)NC(=O)CNC1=O [compound 91] (H-G[S5]GKF[S5]KKKKKFSKA[S5]VGE[S5]AKKGGE-NH2; staple 2-6, 16-20) | > 200
64 | 2 | 1 | 4 | 64 | CC(C)[C@@H]1NC(=O)[C@@](C)(NC(=O)[C@H](CO)NC(=O)[C@H](CCCCN)NC(=O)CNC(=O)[C@H](Cc2ccccc2)NC(=O)[C@H](CCCCN)NC(=O)[C@H](CCCCN)NC(=O)[C@H](CCCCN)NC(=O)[C@H](CCCCN)NC(=O)[C@H](CN)NC(=O)[C@]2(C)CCCC=CCCC[C@](C)(NC(=O)CN)C(=O)NCC(=O)N[C@@H](CCCCN)C(=O)N[C@@H](Cc3ccccc3)C(=O)N2)CCCC=CCCC[C@@](C)(C(=O)N[C@@H](C)C(=O)N[C@@H](CCCCN)C(=O)N[C@@H](CCCCN)C(N)=O)NC(=O)[C@H](CCC(=O)O)NC(=O)CNC1=O [compound 87] (H-G[S5]GKF[S5][Dap]KKKKFGKS[S5]VGE[S5]AKK-NH2; staple 2-6, 16-20) | > 200
